Source: article PMC7688903 (Frontiers in Microbiology, 2020)
In brackets after ≈: the same amount, converted by molar mass. Entries after “also recorded” stand apart in the source; their conditions may differ. Like-named read-outs stand apart in the source and are kept apart here. Marks after values point to notes of the source that are not given here. Where a SMILES comes first, the peptide text is derived from it. Where no end group is shown, it is not given here. [ ]: non-standard residue; d: D form. hArg = N=C(N)NCCCC[C@H](N)C(=O)O; 2Thi = N[C@@H](Cc1cccs1)C(=O)O; Dab = NCC[C@H](N)C(=O)O; Dap = NC[C@H](N)C(=O)O

Tests used:
E. coli ATCC 25922 = type: cell-based, Escherichia coli
Description: (§1) The antimicrobial activities of the peptides were tested against E. coli ATCC 25922, P. aeruginosa ATCC 27853, carbapenem-resistant P. aeruginosa SIPI-012, A. baumannii ATCC 19606, carbapenem-resistant A. baumannii SIPI-025, S. aureus ATCC 25923, and C. albicans ATCC 10231. The minimum inhibitory concentration (MIC) values were determined using the microdilution method according to Clinical and Laboratory Standards Institute guidelines ([CLSI, 2008], [2012]). The peptides were dissolved in 10 mM PB to a concentration of 1280 μg/mL as stock solutions.
(§2) For inoculum preparation of bacteria, morphologically similar colonies selected from fresh MH agar plates were transferred using a loop into approximately 10 mL of MH broth in a capped test tube and vortexed. The suspension was adjusted with MH broth to achieve a turbidity equivalent to a 0.5 McFarland standard (BaSO4 solution prepared spectrophotometrically). A working suspension was prepared by making a 1:15 dilution followed by a 1:20 dilution of the stock suspension with MH broth medium to obtain approximately 5 × 10^5 CFU/mL. For inoculum preparation of yeast, five fresh colonies of approximately 1 mm diameter were picked from 24-hour-old cultures of C. albicans and suspended in 5 mL of sterile 0.85% saline. The resulting suspension was vortexed and the cell density was adjusted by adding sufficient sterile saline to achieve a turbidity equivalent to a 0.5 McFarland standard. A working suspension was prepared by making a 1:100 dilution followed by a 1:20 dilution of the stock suspension with RPMI 1640 broth medium to obtain 0.5 × 10^3 to 2.5 × 10^3 CFU/mL. Intermediate twofold dilutions of the peptides were prepared in MH broth and RPMI 1640 medium, and 90 μL aliquots were added to each well in addition to 10 μL of the inoculum prepared above.
(§3) Each plate included a growth control well and a sterility (uninoculated) control well. Colistin, vancomycin hydrochloride, and amphotericin B were used as positive controls for gram-negative bacteria, gram-positive bacteria, and fungi, respectively. The bacterial and fungal plates were incubated at 37°C for 20 h and 35°C for 48 h, respectively, both under ambient atmosphere. The inhibition of microbial growth was assessed visually. The MICs were determined from independent triplicate assays.

P. aeruginosa ATCC 9027 = test: In vivo antibacterial activity, lethal intraperitoneal infection; details: BALB/c mice, lethal i.p. dose of P. aeruginosa ATCC 9027, 10 mg/kg i.p. at 1 and 8 h post-infection, n = 10
Description: The in vivo antibacterial activities of the peptides were evaluated in BALB/c mice using P. aeruginosa ATCC 9027 as a test strain. A total of 20 mice (6 weeks old, approximate weight: 18–20 g, SFP grade) were first used to measure the minimal lethal doses (MLD) with 5 mice for each inoculum. Cell numbers of selected strains were determined from the colony numbers from the plate count agar and four inocula (1 × 10^6, 5 × 10^6, 1 × 10^7, and 5 × 10^7 CFU/mouse) were administered via intraperitoneal injection. The minimal lethal dose was determined by measuring the mortality rate after 72 h. BALB/c mice were then injected intraperitoneally with a lethal dose of P. aeruginosa ATCC 9027. […] Colistin (10 mg/kg) was used as a positive control. The survival of the animals was monitored over 7 d.

P. aeruginosa ATCC 27853 = type: cell-based, Pseudomonas aeruginosa
Description: as §1, §2, §3

[1] = system: carbapenem-resistant P. aeruginosa (CRPA) SIPI-012; type: cell-based, Pseudomonas aeruginosa
Description: as §1, §2, §3

[2] = system: carbapenem-resistant A. baumannii (CRAB) SIPI-025; type: cell-based, Acinetobacter baumannii
Description: as §1, §2, §3

A. baumannii ATCC 19606 = type: cell-based, Acinetobacter baumannii
Description: as §1, §2, §3

BALB/c mice = test: In vivo acute toxicity, single injection; parameters: species or system mouse; details: monitored 24 h
Description: Six-week-old mice (approximate weight: 18–20 g, SFP grade) were bred and maintained under specific pathogen-free conditions on a 12 h light/dark cycle. The peptides were dissolved in PBS (pH 7.4) and three mice were used for each dose. As a control, colistin was administered in a similar manner. The mice were monitored for 24 h and mice were weighed at the end of the experiment. The procedure was evaluated and approved by the Ethical Committee of Experimental Animals of the Chia Tai Tianqing Pharmaceutical Group in August 2019.
As summarized in Figure 6, a toxicity score was assigned as follows: no abnormalities = without signs; mild depression, poor motility, purple-black tail, and recovery in 1 h = mild signs; serious depression and poor motility even under stimulation = manifest signs; sudden death within 10 min = died of toxic effects.

[3] = system: proteases secreted by S. aureus ATCC 25923; test: in vitro; details: Staphylococcus aureus, S. aureus ATCC 25923 culture supernatant, pH 8
Description: (§4) The stabilities of the peptides toward proteases secreted by E. coli ATCC 25922, P. aeruginosa ATCC 27853, A. baumannii ATCC 19606, S. aureus ATCC 25923, and C. albicans ATCC 10231 were also examined. Microbial supernatants were prepared by resuspending single colonies of each strain in 20 mL of an appropriate culture medium followed by incubation at 37°C overnight. MH broth and 2% tryptone/2% dextrose were used as the culture media for bacteria and yeast, respectively. Each culture was then centrifuged at 12,000 × g for 10 min and the supernatant was adjusted to pH 8.0 with HCl or NaOH and then filtered through a 0.22 μm sterile filter membrane ([Zaet et al., 2017]). The peptides were then dissolved in the filtered supernatants to a concentration of 0.5 mg/mL, and the peptide-free supernatants were used as negative controls. The samples were incubated at 37°C for 24 h in a water bath and then analyzed by RP-HPLC as described above.

[4] = system: proteases secreted by P. aeruginosa ATCC 27853; test: in vitro; details: Pseudomonas aeruginosa, P. aeruginosa ATCC 27853 culture supernatant, pH 8
Description: as §4

S. aureus ATCC 25923 = test: microbe, parasite or virus in culture; type: cell-based, Staphylococcus aureus; details: ATCC 25923, 20 h
Description: as §1, §2, §3

RAW 264.7 cells = test: Cell viability assay (MTT); type: cell-based, mouse; details: 1–128 μM peptide in DMEM with 4% FBS, 42 h, 595 nm, triplicate
Description: The peptides were dissolved in ddH2O to a concentration of 256 μM. RAW 264.7 cells were cultured in 100 μL of DMEM containing 10% FBS and seeded at a density of 1 × 10^4 cells in a 96-well culture plate. The plate was incubated at 37°C under 5% CO2 atmosphere overnight. After attaining 80% confluency, the cells were treated with various concentrations of the peptides (1–128 μM) dissolved in DMEM containing 4% FBS for 42 h. Cytotoxicity was determined using the MTT tetrazolium reduction assay and quantified spectrophotometrically at 595 nm using a SpectraMax i3x microplate reader. The cell viability was calculated with respect to control samples treated only with DMEM containing 4% FBS ([Khara et al., 2016]). Each test was done in triplicate and the concentration required for 50% inhibition of viability (IC50) was determined.

C. albicans ATCC 10231 = test: microbe, parasite or virus in culture; type: cell-based, Candida albicans; details: ATCC 10231, 48 h
Description: as §1, §2, §3

human erythrocytes = test: Hemolytic activity assay; type: cell-based; details: human RBC in PB, 37°C, 1 h, OD420, total lysis control 0.1% SDS, three technical replicates
Description: Whole blood was obtained from a healthy volunteer. The red blood cells (RBC) were then centrifuged (800 × g, 10 min), washed twice with PB, resuspended in 1 mL of PB, and incubated with various concentrations of the peptides (32–128 μM) at 37°C for 1 h. As a positive control, total lysis of the RBC was accomplished by incubation with 0.1% SDS. For each condition, three technical replicates were performed. After incubation, the RBC were centrifuged at 800 × g for 10 min and the amount of hemoglobin released into the supernatant was determined by measuring the optical density OD420 using a SpectraMax i3x microplate reader (Molecular Devices) ([Zaet et al., 2017]).

human plasma proteases = test: in vitro
Description: The peptides were mixed with plasma from healthy volunteers to a final concentration of 0.1 mg/mL and incubated at 37°C. Aliquots (20 or 40 μL) were removed after 0, 2, 4, 6, 8, 12, 24, and 36 h, mixed with 0.05% TFA to a final concentration of 0.01 mg/mL, and incubated on ice for 10 min. After centrifugation (12,000 × g, 5 min), the supernatant was stored at −20°C. The samples were analyzed as described in section “Hydrophobicity” and quantified as described in section “Stability Toward Tryptic Degradation.” All stability tests were performed at least in triplicate. The identities of the metabolites after 12 h of degradation by plasma proteases were determined by LC-MS on a Waters Acquity UPLC-QDa system.

Trypsin = test: trypsin in 0.1 M NH4HCO3 buffer (pH 8.2); details: 37°C, up to 24 h
[5] = plasma from healthy volunteers; details: human, 37°C, up to 36 h
[6] = carbapenem-resistant (CRPA) SIPI-012, 20 h
[7] = carbapenem-resistant (CRAB) SIPI-025, 20 h

| Molecule | MIC (E. coli ATCC 25922; ATCC 25922, 20 h) | remaining at 24 h, 0.5 mg/mL [3] | MIC (P. aeruginosa ATCC 27853; ATCC 27853, 20 h) | MIC [1, 6] | MIC (S. aureus ATCC 25923) | MIC [2, 7] | MIC (A. baumannii ATCC 19606; ATCC 19606, 20 h) | IC50 (RAW 264.7 cells) | MIC (C. albicans ATCC 10231) | Hemolysis rate (%) (human erythrocytes; 64 μM) | Hemolysis rate (%) (human erythrocytes; 128 μM) | fragment found (Trypsin) | fragment found [5] | also measured |
| --- | --- | --- | --- | --- | --- | --- | --- | --- | --- | --- | --- | --- | --- | --- |
| colistin [reference compound] |  |  |  |  |  |  |  |  |  |  |  |  |  | MIC (E. coli ATCC 25922; E. coli ATCC 25922, MH broth, 37°C, 20 h, visual, independent triplicate assays): 0.25 µg/mL; survival rate (P. aeruginosa ATCC 9027; after 3 d): 100%; survival rate (P. aeruginosa ATCC 9027; after 7 d): 100%; MIC (P. aeruginosa ATCC 27853; P. aeruginosa ATCC 27853, MH broth, 37°C, 20 h, visual, independent triplicate assays): 0.5 µg/mL; MIC ([1]; CRPA SIPI-012, MH broth, 37°C, 20 h, visual, independent triplicate assays): 1 µg/mL; MIC ([2]; CRAB SIPI-025, MH broth, 37°C, 20 h, visual, independent triplicate assays): 0.25 µg/mL; MIC (A. baumannii ATCC 19606; A. baumannii ATCC 19606, MH broth, 37°C, 20 h, visual, independent triplicate assays): 0.25 µg/mL; signs of toxicity after intravenous injection (BALB/c mice; single i.v. dose 10 mg/kg, three mice): two out of three mice dying immediately; signs of toxicity after intravenous injection (BALB/c mice; single i.v. dose 20 mg/kg, three mice): all three mice dying |
| CC(C)C[C@H](NC(=O)[C@H](Cc1ccc(O)cc1)NC(=O)[C@H](CCN)NC(=O)[C@H](CC(C)C)NC(=O)[C@H](CC(C)C)NC(=O)[C@H](CN)NC(=O)[C@H](CN)NC(=O)[C@H](Cc1ccccc1)NC(=O)[C@H](CC(C)C)NC(=O)[C@H](CCCCNC(=N)N)NC(=O)[C@@H](N)CN)C(=O)N[C@@H](CCCCNC(=N)N)C(=O)N[C@@H](CCN)C(=O)N[C@@H](Cc1cccs1)C(N)=O [UP11] (H-[Dap][hArg]LF[Dap][Dap]LL[Dab]YL[hArg][Dab][2Thi]-NH2) | 2 µg/mL (≈ 1.15 µM) | 35.7 ± 3.82% | 2 µg/mL (≈ 1.15 µM) | 8 µg/mL (≈ 4.62 µM) | 1 µg/mL (≈ 0.577 µM) | 2 µg/mL (≈ 1.15 µM) | 2 µg/mL (≈ 1.15 µM) | 28.3 ± 5.8 µM | 4 µg/mL (≈ 2.31 µM) | 95.65 ± 2.31 % | ∼100.00* % |  |  | remaining at 24 h, 0.5 mg/mL [4]: 22.4 ± 1.72% |
| KRLFKKLLKYLRKF-NH2 [Pep05] | 1 µg/mL | 22.2 ± 4.47% | 2 µg/mL | 4 µg/mL | 1 µg/mL | 2 µg/mL | 2 µg/mL | 13.4 ± 2.85 µM | 4 µg/mL | 34.39 ± 1.49% | 49.18 ± 2.01% |  |  | signs of toxicity after intravenous injection (BALB/c mice; single i.v. dose, all tested doses (5, 10, 20 mg/kg), three mice per dose): no obvious abnormalities; metabolised at 2 h, 0.1 mg/mL (human plasma proteases): > 40%; metabolised at 4 h, 0.1 mg/mL (human plasma proteases): > 50% |
| KRLFKRLFKYLRRF |  |  |  |  |  |  |  |  |  |  |  | (R) RF 13–14, major, 18 h; also recorded: (K) YLRR (F) 10–13, major, 18 h; also recorded: (R) F 14, major, 18 h; also recorded: (K) YLR (R) 10–12, major, 18 h | (K) YLRRF 10–14, major, 12 h; also recorded: (K) RLFKRLFKYLRRF 2–14, major, 12 h |  |
| KRL[2Thi]KKLLKYLRK[2Thi] |  |  |  |  |  |  |  |  |  |  |  | (K) Thi 14, major, 18 h; also recorded: (R) LThiKK (L) 3–6, major, 18 h; also recorded: (K) KLLK (Y) 6–9, major, 18 h; also recorded: (K) LLK (Y) 7–9, major, 18 h; also recorded: (K) YLR (K) 10–12, major, 18 h; also recorded: (R) LThiK (K) 3–5, major, 18 h | (R) LThiKKLLKYLRKThi 3–14, major, 12 h; also recorded: (K) RLThiKKLLKYLRKThi 2–14, major, 12 h |  |
| DabRLThiDapDabLLDabYLHorDabF |  |  |  |  |  |  |  |  |  |  |  | (Dab) RLThiDapDabLLDab (Y) 2–9, major, 18 h; also recorded: (R) LThiDapDabLLDabYLHor (Dab) 3–12, major, 18 h | (R) LThiDapDabLLDabYLHorDab F 3–14, major, 12 h; also recorded: (Dab) RLThiDapDabLLDabYLHorDabF 2–14, major, 12 h |  |
